From US4091115A, “7-Amino-benzocycloheptenes” (Roussel Uclaf, priority 1975, dated 1978)
Where a name gives a salt, the structure may show the parent alone.

Key:
Acute toxicity in mice = format: in vivo; conditions: mouse, in vivo, ip, intraperitoneal
Description: (§1) The LD50 dose which kills 50% of mice after intraperitoneal administration of the tested compounds was determined 48 hours later and the results are reported in Table IV.

effects of 5-HTP = experiment: Potentiation of effects of 5-HTP in mice; format: in vivo; conditions: Mus musculus, 1 h; i.p. one hour before 5-HTP 200 mg/kg i.p.; trembling observed for an hour; read-out: MAD (minimal active dose), potentiation of 5-HTP effects
Description: The administration of 5-hydroxytryptophane (5-HTP) to mice pretreated with an antidepressant induces in the animals a particular behavior, namely the appearance of trembling. The tested products were administered intraperitoneally at increasing doses one hour before the intraperitoneal administration of 5-HTP at an dose of 200 mg/kg. The symptoms were observed every 15 minutes for an hour to determine the miminal active dose (MAD) of the test product and the results are reported in Table II.

effects of L-dopa = experiment: Potentiation of effects of L-dopa in mice pretreated with iproniazide; format: in vivo, male mice; conditions: Mus musculus, ip; i.p. one hour before L-dopa 100 mg/kg i.p.; iproniazide 75 mg/kg i.p. 18 hours before; read-out: ED50, dose which potentiates by 50% the L-dopa effects
Description: The administration of L-dopa to mice pretreated 18 hours previously with iproniazide produced certain number of symptoms; muscular hypertonically, hyperactivity, agitation, crying, aggressiveness, salivation and exophthalmy. The intensity of these effects is potentiated by administration of an antidepressant one hour before the administration of L-dopa. Male mices received intraperitoneally 75 mg/kg of iproniazide 18 hours before the start of the test and the tested product was intraperitoneally administered in aqueous solution in increasing doses. One hour later, L-dopa was intraperitoneally administered at a dose of 100 mg/kg and the different symptoms were observed 15 and 30 minutes later. They were evaluated on a scale of 0 to 3 for each animal and the totals for each dose were determined.

mice = experiment: Acute toxicity in mice; format: in vivo; conditions: intraperitoneal, 48 hours
Description: as §1

[1] = system: uptake of 14 C-5HT in synaptosomes; experiment: Inhibition of Serotonine uptake in vivo (synaptosomes from treated rats); parameters: species or system female rats 19 to 21 days old; key: the activity was expressed in increasing number of + signs; ++: the activity was expressed in increasing number of + signs; +++: the activity was expressed in increasing number of + signs; conditions: i.p. 5 to 20 mg/kg; brain removed after 30 minutes
Description: The tested products were intraperitoneally administered to groups of female rats 19 to 21 days old at doses of 5 to 20 mg/kg. After 30 minutes, the brain was removed and synaptosomes were prepared and placed in an incubator in the presence of 14 C-5HT as indicated in the previous test.

[2] = system: effects of monoamine oxidase inhibitor (nialamide); experiment: Potentiation of effects of monoamine oxidase inhibitor (nialamide) in mice; format: in vivo; parameters: key: Potentiation of the effects of nialamide for the tested product was expressed in increasing number of + signs for a determined dose in mg/kg; ++: Potentiation of the effects of nialamide for the tested product was expressed in increasing number of + signs for a determined dose in mg/kg; +++: Potentiation of the effects of nialamide for the tested product was expressed in increasing number of + signs for a determined dose in mg/kg; conditions: nialamide 100 mg/kg i.p. 30 minutes before, actimetry 6 hours
Description: The administration of a monoamine oxidase inhibitor to mice induces a hyperactive movement of the animals which is able to be potentiated by an antidepressant. Using the procedure of Carlsson et al [Brain Research, Vol. 12 (1969), p. 456], a dose of 100 mg/kg of nialamide was intraperitoneally administered to mice 30 minutes before the intraperitoneal administration of the tested product and the values of actimetric measurements were recorded every 30 minutes for 6 hours. Potentiation of the effects of nialamide for the tested product was expressed in increasing number of + signs for a determined dose in mg/kg.

[3] = system: serotonine (5HT) uptake in synaptosomes; experiment: Inhibition of Serotonine uptake in vitro (brain synaptosomes); format: biochemical, female rat 19 to 21 days old; conditions: rat whole brain synaptosomes, 37° C, 5 minutes, 14 C-5HT 10^-7 M; read-out: I.C. 50, Test in vitro (inhibition of 14 C-5HT uptake)
Description: The inhibition of serotonine (5HT) uptake was measured in impure synaptosomes prepared from the entire brain of a female rat 19 to 21 days old using the technique of Kannengiesser et al [Biochemical Pharmacology, Vol. 22, (1973) p. 73]. Diverse concentrations of the products were placed in an incubator with the preparation at 37° C for 5 minutes in the presence of 14 C-5HT at a concentration of 10^-7 M. The 50% inhibiting concentration (IC50), dose which inhibits by 50% the uptake of 14 C-5HT in the synaptosomes was determined graphically and the IC50 dose for the compounds is reported in Table V.

Structure (SMILES) | LD50 at 48 h (Acute toxicity in mice) | minimal effective dose (effects of 5-HTP) | ED50 (effects of L-dopa) | LD50 (mice) | Test in vivo (inhibition of 14 C-5HT uptake) [1] | Potentiation of nialamide ([2]; 1 mg/kg i.p.) | Potentiation of nialamide ([2]; 20 mg/kg i.p.) | IC50 [3] | Potentiation of nialamide ([2]; 1-5 mg/kg i.p.) | Potentiation of nialamide ([2]; 5 mg/kg i.p.)
CN(C)C1CCc2ccccc2C(c2ccccc2)C1 (single isomer, unassigned) [Example 4, 7-dimethylamino-5-phenyl-6,7,8,9-tetrahydro [5H] benzocycloheptene hydrochloride] | 50 mg/kg |  |  |  |  |  |  |  |  | 
CN(C)C1CCc2ccccc2C(c2ccccc2)C1 (single isomer, unassigned) [Example 5, 7-dimethylamino-5-phenyl-6,7,8,9-tetrahydro [5H] benzocycloheptene hydrochloride] |  | 10 mg/kg | 2 mg/kg | 50 mg/kg | +++ | + | +++ | 150 nM |  | 
CN(C)C1C=Cc2ccccc2CC1 (stereo not shown) [Example 1, 7-dimethylamino-6,7-dihydro [5H] benzocycloheptene hydrochloride] | 75 mg/kg | 20 mg/kg | < 5 mg/kg |  | ++ |  | ++ | 510 nM |  | 
CN(C)C1CCc2ccccc2CC1 [Example 2, 7-dimethylamino-6,7,8,9-tetrahydro [5H] benzocycloheptene hydrochloride] | 100 mg/kg |  | 5 mg/kg |  |  |  | +++ |  | + | 
CN(C)C1C=C(c2ccccc2)c2ccccc2CC1 (stereo not shown) [Example 3, 7-dimethylamino-9-phenyl-6,7-dihydro [5H] benzocycloheptene hydrochloride] | 100 mg/kg |  | 2 mg/kg |  |  |  |  |  |  | 
CNC1C=Cc2ccccc2CC1 (stereo not shown) [Example 6, 7-methylamino-6,7-dihydro [5H] benzocycloheptene hydrochloride] | 75 mg/kg | 5 mg/kg | 10 mg/kg |  | ++ |  | +++ | 1900 nM |  | ++
CNC1CCc2ccccc2CC1 [Example 7, 7-methylamino-6,7,8,9-tetrahydro [5H] benzocycloheptene hydrochloride] | 100 mg/kg |  | 10 mg/kg |  |  |  | ++ |  |  | +
CNC1C=C(c2ccccc2)c2ccccc2CC1 (stereo not shown) [Example 8, 7-methylamino-9-phenyl-6,7-dihydro [5H] benzocycloheptene hydrochloride] | 50 mg/kg |  | 5 mg/kg |  |  |  |  |  |  | 
CNC1CCc2ccccc2C(c2ccccc2)C1 (stereo not shown) [Example 9, 7-methylamino-5-phenyl-6,7,8,9-tetrahydro [5H] benzocycloheptene hydrochloride] | 50 mg/kg | 20 mg/kg | 5 mg/kg |  |  |  |  |  |  | 
CNC1C=Cc2cc(Cl)ccc2CC1.Cl (stereo not shown) [Example 10 (2-chloro derivative), 2-chloro-7-methylamino-6,7-dihydro [5H] benzocycloheptene hydrochloride] | 75 mg/kg | 10 mg/kg | < 5 mg/kg |  | +++ | +++ |  | 350 nM |  | +++
CNC1C=Cc2cccc(Cl)c2CC1 (stereo not shown) [Example 11, 4-chloro-7-methylamino-6,7-dihydro [5H] benzocyclopheptene hydrochloride] | 75 mg/kg | 20 mg/kg | 20 mg/kg |  | + |  | +++ | 400 nM |  | +
CCNC1C=Cc2ccccc2CC1 (stereo not shown) [Example 12, 7-ethylamino-6,7-dihydro [5H] benzocycloheptene hydrochloride] | 75 mg/kg | 20 mg/kg | 10 mg/kg |  |  |  |  |  |  | 
CN1CCN(C2C=Cc3ccccc3CC2)CC1 (stereo not shown) [Example 13, 7-(4-methylpiperazin-1-yl)-6,7,-dihydro [5H] benzocycloheptene difumarate] | 250 mg/kg | 50 mg/kg | 20 mg/kg |  |  |  | ++ |  |  | 
C=CCNC1C=Cc2ccccc2CC1 (stereo not shown) [Example 14, 7-allylamino-6,7-dihydro [5H] benzocycloheptene hydrochloride] | 150 mg/kg | 50 mg/kg | 20 mg/kg |  |  |  | ++ |  |  | 
